From ChEMBL document CHEMBL4330176, “Imidazoquinolines as Novel Inhibitors of LRRK2 Kinase Activity” (ACS Med Chem Lett, 2019)
pIC50: −log10 of the molar value.

How the values were obtained:
[1] = molecular target: Leucine-rich repeat serine/threonine-protein kinase 2 (Homo sapiens, UniProt Q5S007, G2019S); assay: Inhibition of GST-tagged LRRK2 G2019S mutant (unknown origin) expressed in baculovirus expression system using fluorescein-labeled LRRKtide as substrate after 30 mins by Lanthascreen assay
Chain of Leucine-rich repeat serine/threonine-protein kinase 2 (Homo sapiens, UniProt Q5S007, G2019S) (Q5S007 whole entry G2019S): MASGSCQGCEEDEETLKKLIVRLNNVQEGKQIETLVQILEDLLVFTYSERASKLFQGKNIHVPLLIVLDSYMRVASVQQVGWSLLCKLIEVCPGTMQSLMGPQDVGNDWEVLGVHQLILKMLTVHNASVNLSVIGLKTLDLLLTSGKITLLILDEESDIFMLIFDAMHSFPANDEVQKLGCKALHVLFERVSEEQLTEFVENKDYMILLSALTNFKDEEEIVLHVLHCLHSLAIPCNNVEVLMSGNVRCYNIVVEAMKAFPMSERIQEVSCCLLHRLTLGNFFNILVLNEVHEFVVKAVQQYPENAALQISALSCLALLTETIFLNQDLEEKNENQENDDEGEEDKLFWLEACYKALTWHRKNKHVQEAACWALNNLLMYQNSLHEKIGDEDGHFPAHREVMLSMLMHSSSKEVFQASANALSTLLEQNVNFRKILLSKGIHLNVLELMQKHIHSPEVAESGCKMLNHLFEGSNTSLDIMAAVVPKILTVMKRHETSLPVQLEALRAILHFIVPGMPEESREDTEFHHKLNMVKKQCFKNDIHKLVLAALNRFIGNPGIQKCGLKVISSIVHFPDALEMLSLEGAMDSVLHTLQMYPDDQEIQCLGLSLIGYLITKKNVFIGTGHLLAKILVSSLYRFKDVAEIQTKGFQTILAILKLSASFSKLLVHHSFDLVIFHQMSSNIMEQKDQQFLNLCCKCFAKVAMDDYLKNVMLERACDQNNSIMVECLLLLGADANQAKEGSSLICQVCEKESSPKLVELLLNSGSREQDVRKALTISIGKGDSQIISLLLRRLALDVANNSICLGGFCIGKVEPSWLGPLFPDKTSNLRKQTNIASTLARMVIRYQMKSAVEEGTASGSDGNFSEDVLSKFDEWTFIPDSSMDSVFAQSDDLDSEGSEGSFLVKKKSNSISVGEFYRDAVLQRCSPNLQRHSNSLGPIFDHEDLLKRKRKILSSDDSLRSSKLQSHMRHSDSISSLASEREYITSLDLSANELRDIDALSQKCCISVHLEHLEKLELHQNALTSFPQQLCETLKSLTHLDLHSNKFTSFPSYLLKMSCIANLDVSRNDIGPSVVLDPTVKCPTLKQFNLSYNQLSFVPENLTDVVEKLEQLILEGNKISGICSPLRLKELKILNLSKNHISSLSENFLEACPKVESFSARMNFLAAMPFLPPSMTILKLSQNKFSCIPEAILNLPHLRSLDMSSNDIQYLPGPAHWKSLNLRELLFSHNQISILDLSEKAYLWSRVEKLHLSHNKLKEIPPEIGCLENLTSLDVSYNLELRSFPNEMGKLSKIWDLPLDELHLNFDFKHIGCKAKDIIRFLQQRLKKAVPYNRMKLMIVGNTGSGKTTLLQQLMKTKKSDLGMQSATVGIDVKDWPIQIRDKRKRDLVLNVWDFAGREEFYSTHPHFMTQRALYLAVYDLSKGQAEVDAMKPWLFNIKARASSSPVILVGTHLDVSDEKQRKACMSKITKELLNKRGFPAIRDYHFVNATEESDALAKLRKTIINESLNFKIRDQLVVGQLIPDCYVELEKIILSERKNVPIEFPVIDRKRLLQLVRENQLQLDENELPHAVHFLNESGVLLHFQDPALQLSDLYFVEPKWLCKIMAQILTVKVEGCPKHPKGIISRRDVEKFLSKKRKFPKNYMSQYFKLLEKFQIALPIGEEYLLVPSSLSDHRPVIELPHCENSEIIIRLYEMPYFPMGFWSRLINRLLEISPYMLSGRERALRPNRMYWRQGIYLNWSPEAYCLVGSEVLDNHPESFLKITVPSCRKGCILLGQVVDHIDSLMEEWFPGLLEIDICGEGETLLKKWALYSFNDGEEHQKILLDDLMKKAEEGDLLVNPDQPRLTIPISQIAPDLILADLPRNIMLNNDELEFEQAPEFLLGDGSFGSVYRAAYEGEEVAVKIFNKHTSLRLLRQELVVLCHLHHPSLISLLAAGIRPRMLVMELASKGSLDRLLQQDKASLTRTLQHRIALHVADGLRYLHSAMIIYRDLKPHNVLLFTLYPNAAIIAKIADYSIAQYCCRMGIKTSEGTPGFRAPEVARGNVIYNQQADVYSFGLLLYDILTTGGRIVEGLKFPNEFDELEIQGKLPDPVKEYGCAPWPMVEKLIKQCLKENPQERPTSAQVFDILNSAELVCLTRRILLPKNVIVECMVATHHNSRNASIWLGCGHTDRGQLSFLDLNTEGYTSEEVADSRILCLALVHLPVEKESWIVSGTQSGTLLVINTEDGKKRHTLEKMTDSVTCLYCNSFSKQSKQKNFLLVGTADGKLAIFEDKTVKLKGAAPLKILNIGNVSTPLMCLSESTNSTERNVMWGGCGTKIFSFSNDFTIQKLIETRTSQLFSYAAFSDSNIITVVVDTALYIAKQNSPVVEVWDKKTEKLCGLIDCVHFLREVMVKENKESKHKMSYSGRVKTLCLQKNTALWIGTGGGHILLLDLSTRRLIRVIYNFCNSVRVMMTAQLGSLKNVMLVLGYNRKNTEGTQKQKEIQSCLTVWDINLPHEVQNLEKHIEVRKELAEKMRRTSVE

[2] = molecular target: Leucine-rich repeat serine/threonine-protein kinase 2 (Homo sapiens, UniProt Q5S007); assay: Inhibition of recombinant wild-type GST-tagged LRRK2 (unknown origin) expressed in baculovirus expression system using fluorescein-labeled LRRKtide as substrate after 30 mins by Lanthascreen assay
Chain of Leucine-rich repeat serine/threonine-protein kinase 2 (Homo sapiens, UniProt Q5S007) (Q5S007 whole entry): as the sequence (Q5S007 whole entry G2019S) above, with S2019G counted along it

Structure (SMILES) | pIC50 [1] | pIC50 [2]
[2H]C([2H])([2H])c1cnc(Cc2nc3cnc4ccc(Cl)cc4c3n2[C@@H]2CCO[C@H](C)C2)cn1 | 8.67 | 
Cc1nc(Cc2nc3cnc4ccc(C(F)(F)F)cc4c3n2[C@@H]2CCOCC2(F)F)no1 | 7.58 | 7.59
CCc1nc2cnc3ccc(Cl)cc3c2n1[C@@H]1CCO[C@H](CC#N)C1 | 8.06 | 
N#Cc1ccc2ncc3nc(Cc4csnn4)n([C@@H]4CC[C@H](F)C4)c3c2c1 (relative stereo) | 8.01 | 8.01
